Data reported in ChEMBL document CHEMBL3862021, “Eeyarestatin I derivatives with improved aqueous solubility” (Bioorg Med Chem Lett, 2016).
Values after ≈ are worked out from the molar mass of the structure shown. Active and inactive are the calls of the source. The calls are words filed in the database; no cut-off is given here.

Key:
[1] = Half life in mouse plasma by LC-MS/MS analysis; format: ADME, cell-free
[2] = Antiproliferative activity against human MIAPaCa2 cells assessed as reduction in cell viability after 72 hrs by MTT assay; format: functional, cell-based; conditions: MIA PaCa-2, 72 h
[3] = Primary phase half life in human liver microsomes at 1 uM in presence of NADPH by LC-MS/MS analysis; format: ADME; conditions: read-out: alphat1/2
[4] = target: Transitional endoplasmic reticulum ATPase (Homo sapiens) (UniProt P55072); assay: Inhibition of p97 in HEK293T cells assessed as induction of ER-stress by measuring ATF3 expression up to 40 uM after 16 hrs by immunoblot analysis; format: cell-based; conditions: HEK-293T
Transitional endoplasmic reticulum ATPase (Homo sapiens), sequence (P55072 2-806 limits assumed): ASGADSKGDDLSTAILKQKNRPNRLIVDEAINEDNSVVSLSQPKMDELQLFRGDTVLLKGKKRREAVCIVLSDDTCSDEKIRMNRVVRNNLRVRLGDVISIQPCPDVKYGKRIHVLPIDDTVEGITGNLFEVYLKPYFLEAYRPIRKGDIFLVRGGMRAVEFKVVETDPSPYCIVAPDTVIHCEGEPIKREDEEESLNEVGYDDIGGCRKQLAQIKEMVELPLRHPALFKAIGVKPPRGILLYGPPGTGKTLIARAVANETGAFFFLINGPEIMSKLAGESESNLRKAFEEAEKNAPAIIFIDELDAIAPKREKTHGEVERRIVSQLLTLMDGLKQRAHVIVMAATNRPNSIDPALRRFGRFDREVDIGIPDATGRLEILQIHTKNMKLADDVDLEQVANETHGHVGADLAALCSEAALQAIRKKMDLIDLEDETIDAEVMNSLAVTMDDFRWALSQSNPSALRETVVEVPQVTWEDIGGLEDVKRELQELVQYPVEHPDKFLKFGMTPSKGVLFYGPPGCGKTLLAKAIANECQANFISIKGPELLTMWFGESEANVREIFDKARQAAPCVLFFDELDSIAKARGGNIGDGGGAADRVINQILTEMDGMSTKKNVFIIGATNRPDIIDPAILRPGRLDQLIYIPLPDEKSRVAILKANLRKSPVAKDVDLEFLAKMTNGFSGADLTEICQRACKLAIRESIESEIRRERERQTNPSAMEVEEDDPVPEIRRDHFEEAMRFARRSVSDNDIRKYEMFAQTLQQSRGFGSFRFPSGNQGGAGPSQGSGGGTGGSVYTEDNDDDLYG

[5] = Thermodynamic solubility of the compound in DPBS after 24 hrs by LC-MS/MS analysis; format: physicochemical; conditions: read-out: Therm_solubility
[6] = Half life in human plasma by LC-MS/MS analysis; format: ADME, cell-free
[7] = Primary phase half life in mouse liver microsomes at 1 uM in presence of NADPH by LC-MS/MS analysis; format: ADME; conditions: read-out: alphat1/2
[8] = Terminal phase half life in human liver microsomes at 1 uM in presence of UDPGA by LC-MS/MS analysis; format: ADME; conditions: read-out: beta t1/2
[9] = Terminal phase half life in mouse liver microsomes at 1 uM in presence of UDPGA by LC-MS/MS analysis; format: ADME; conditions: read-out: beta t1/2
[10] = Effect on endogenous p97 protein level in HEK293T cells up to 40 uM after 16 hrs by immunoblot analysis; format: ADME, cell-based; conditions: human, hek-293t
[11] = target: Transitional endoplasmic reticulum ATPase (Homo sapiens) (UniProt P55072); assay: Inhibition of p97 in HEK293T cells assessed as induction of ER-stress by measuring ATF4 expression at 20 uM after 16 hrs by immunoblot analysis; format: cell-based; conditions: HEK-293T

| half-life [1] | half-life at 1 µM [3] | inhibition [4] | solubility thermodynamic at 24 h [5] | half-life [6] | half-life at 1 µM [7] | half-life at 1 µM [8] | half-life at 1 µM [9] | inhibition [11] | SMILES | EC50 [2] | Activity [10] |
| --- | --- | --- | --- | --- | --- | --- | --- | --- | --- | --- | --- |
| 750 min | 124 min | Active | 2.3 µM (≈ 1.54 µg/mL) | 570 min | 105 min | 1390 min | 990 min | Active | COCCOc1ccc(NC(=O)N(O)C2N(c3ccc(Cl)cc3)C(=O)N(CC(=O)N/N=C/C=C/c3ccc([N+](=O)[O-])o3)C2(C)C)cc1 (stereo not given) | 5.4 µM | Non-Toxic |
|  |  |  | 64.2 µM (≈ 45.6 µg/mL) |  |  |  |  |  | COCCOc1ccc(NC(=O)N(O)C2N(c3ccc(OCCOC)cc3)C(=O)N(CC(=O)N/N=C/C=C/c3ccc([N+](=O)[O-])o3)C2(C)C)cc1 (stereo not given) | 38.4 µM | Non-Toxic |
| 942 min | 31.8 min | Active | 2.8 µM (≈ 1.88 µg/mL) | 1030 min | 139 min | 3460 min | 866 min | Active | COCCOc1ccc(N2C(=O)N(CC(=O)N/N=C/C=C/c3ccc([N+](=O)[O-])o3)C(C)(C)C2N(O)C(=O)Nc2ccc(Cl)cc2)cc1 (stereo not given) | 6.3 µM | Non-Toxic |
